Assay results from patent US20140335132A1, “BINDING DRUGS WITH NANOCRYSTALLINE CELLULOSE (NCC)” (priority 2010, published 2014).
Counter-ions that a name gives are not always drawn.

Key:
[1] = Binding of hydrophobic drugs to NCC/CTAB nanocomplexes; format: physicochemical; details: for saturation of binding / binding efficiency to NCC/CTAB nanocomplexes: 12.9 mM CTAB, 2.5 mg NCC, 10 mM NaCl; for binding efficiency to NCC/CTAB nanocomplexes: 25° C., up to 100 μg of drug added; for final mass of drug bound to NCC/CTAB for the release studies: DTX and PTX incubated at 200 μg/ml, ETOP at 100 μg/ml
Experimental: In order to solubilize the hydrophobic drugs paclitaxel (PTX), docetaxel (DTX) and etoposide (ETOP), the surface of the NCC was first modified with CTAB. This was achieved by incubating increasing amounts of CTAB with 2.5 mg of NCC so the final CTAB concentration varied from 0 mM to 12.9 mM. An aliquot of 100 mM NaCl was added, resulting in a final NaCl concentration of 10 mM, which facilitated flocculation and subsequent separation of the NCC/CTAB nanocomplexes by centrifugation as described above. The NCC/CTAB was incubated with stock solutions of the drugs with increasing concentrations. Since these drugs are characterized by low aqueous solubility, they were solubilized in a minimal amount of either DMSO or diblock copolymer in 10 mM NaCl as previously described. The drug/NCC/CTAB suspensions were incubated at 25° C. with tumbling at 8 rpm for 30 minutes then centrifuged at 18000×g for 10 minutes to pellet the NCC/CTAB and bound drug. The amount of unbound drug in the supernatant was determined by HPLC using a Waters HPLC system with Millennium software and UV Vis detection. Separation was achieved using a Novapak™ C18 column with 20 μl injections and a mobile phase flow rate of 1 ml/min. The DTX and PTX mobile phase consisted of 58% acetonitrile, 37% dH2O and 5% methanol with detection at 232 nm. The mobile phase for ETOP was 27% acetonitrile, 1% acetic acid and 72% dH2O and detection was at 286 nm. Calibration curves were prepared for all drugs and were linear in the desired concentration range. The amount of drug bound to the NCC/CTAB was determined using equation (1).

[2] = In vitro release of drugs from NCC/CTAB nanocomplexes in PBS; format: physicochemical; details: 12.9 mM CTAB, 10 mM PBS, 37° C.
Experimental: (§1) Drug Release Procedure: DOX was bound to NCC for release studies by incubating a solution of 325 μg/ml of DOX in distilled water with a suspension containing 2.5 mg of NCC. In order to flocculate the NCC and allow for separation of the NCC/DOX nanocomplexes, NaCl was added to a final concentration of 10 mM. The suspension was centrifuged at 18000×g for 10 minutes to pellet the NCC/DOX and the drug binding was determined by UV Vis spectroscopy as described above. […] NCC/drug nanocomplexes with DTX, PTX and ETOP were prepared as described for the drug binding studies. The concentration of DTX and PTX that was incubated with the NCC suspension was 200 μg/ml and the concentration of ETOP was 100 μg/ml. […] The drug loaded NCC samples were resuspended in 1 ml of PBS followed by incubation at 37° C. with tumbling at 8 rpm. At predetermined times the suspensions were centrifuged at 18000×g for 10 minutes and the supernatant was removed for drug quantitation by UV Vis for DOX and TET or HPLC for DTX, PTX and ETOP, as previously described. At each sampling time point, fresh PBS was added to the tubes and the NCC/drug nanocomplexes were resuspended.

[3] = Binding of hydrophilic drugs to NCC; format: physicochemical; details: for final mass of drug bound to NCC for the release studies: 2.5 mg NCC, distilled water then 10 mM NaCl, DOX solution 325 μg/ml, TET solution 1000 μg/ml; for binding efficiency / maximum mass of drug bound to NCC: 2 mg NCC
Experimental: NCC Drug Binding Procedure: Doxorubicin hydrochloride (DOX) or tetracycline hydrochloride (TET), were dissolved in either 10 mM phosphate buffered saline (PBS) at pH 7.4, or dH2O with increasing drug concentrations ([drugadded]). Drug solutions (1.5 ml) were added to 0.5 ml of NCC suspension in a 2 ml microcentrifuge tube and incubated at 37° C. with tumbling shaking at 8 rpm for 30 minutes. Suspensions containing PBS or NaCl produced flocculated NCC/drug suspensions, which were centrifuged at 18000×g for 10 minutes to pellet the NCC and bound drug. The concentration of unbound drug in the supernatant ([drugunbound]) was assayed using a Varian 50 Bio UV Vis spectrophotometer (Varian, Inc., Mississauga, Ont.) using wavelengths of 482 nm and 364 nm for DOX and TET, respectively. The concentration of drug bound to the NCC ([drugbound]) was calculated using the following equation:
[drugbound]=[drugadded]−[drugunbound] (1)
In this case, the NCC/drug suspensions were transferred to dialysis bags with a molecular weight cut off of 10000 Da (Spectrum Laboratories, Inc., Rancho Dominguez, Calif.) and dialysed against distilled water overnight in the dark at 4° C. The concentration of unbound drug in the dialysate was determined by UV Vis spectroscopy, allowing for the calculation of the amount of drug bound to the NCC according to equation (1).

[4] = In vitro release of drugs from NCC in PBS; format: physicochemical; details: 10 mM PBS, 37° C.
Experimental: as §1

[5] = Retention of fluorescein bound to NCC/CTAB in aqueous media; format: physicochemical; details: upon resuspension or dilution in aqueous media
KU-7 cells = assay: Cell binding and uptake of NCC/CTAB/fluorescein (fluorescence, confocal microscopy); format: cell-based
Experimental: FIGS. 10A, B, C and D are confocal micrographs of KU-7 cells incubated for 2 hours with NCC/CTAB/fluoroscein system with a fluorescein concentration of 0.25 mg/ml. (A) White light image of KU-7 cells. (B) Staining of the nuclei with DAPI. (C) Fluorescein in the cytoplasm. (D) An overlay of images B and C.

[6] = dispersion medium PBS 10 mM, pH 7.4
[7] = dispersion medium distilled water

| Structure (SMILES) | saturation of binding [1] | binding efficiency to NCC/CTAB nanocomplexes [1] | final mass of drug bound to NCC/CTAB for the release studies [1] [µg] | bound drug released within the first hour [2] | total bound drug released in two days [2] [%] | final mass of drug bound to NCC for the release studies [3] [µg] | binding efficiency [3, 6] [%] | maximum mass of drug bound to NCC [3, 6] [µg] | binding efficiency [3, 7] [%] | maximum mass of drug bound to NCC [3, 7] [µg] | bound drug released in four hours [4] | bound drug released by one day (plateau) [4] [%] | also measured |
| --- | --- | --- | --- | --- | --- | --- | --- | --- | --- | --- | --- | --- | --- |
| CC(=O)O[C@@]12CO[C@@H]1C[C@H](O)[C@@]1(C)C(=O)[C@H](O)C3=C(C)[C@@H](OC(=O)[C@H](O)[C@@H](NC(=O)OC(C)(C)C)c4ccccc4)C[C@@](O)([C@@H](OC(=O)c4ccccc4)[C@H]21)C3(C)C [DTX, docetaxel] | approximately 200 μg | approximately 90% | 184 ± 4.8 | Approximately 26% | 59 |  |  |  |  |  |  |  |  |
| COc1cc([C@@H]2c3cc4c(cc3[C@@H](O[C@@H]3O[C@@H]5CO[C@@H](C)O[C@H]5[C@H](O)[C@H]3O)[C@H]3COC(=O)[C@H]23)OCO4)cc(OC)c1O [ETOP, etoposide] |  | 48% | 63 ± 0.1 |  |  |  |  |  |  |  |  |  | maximum mass of drug bound to NCC/CTAB ([1]; 100 μg of drug added): 48 µg; total drug released over four days ([2]; four days): 75% |
| COc1cccc2c1C(=O)c1c(O)c3c(c(O)c1C2=O)C[C@@](O)(C(=O)CO)C[C@@H]3O[C@H]1C[C@H](N)[C@H](O)[C@H](C)O1 [DOX, Doxorubicin hydrochloride] |  |  |  |  |  | 212 ± 3.5 | 65 | 122 | 83 | 1667 | ~85% | 87 |  |
| CC(=O)O[C@H]1C(=O)[C@@]2(C)[C@H]([C@H](OC(=O)c3ccccc3)[C@]3(O)C[C@H](OC(=O)[C@H](O)[C@@H](NC(=O)c4ccccc4)c4ccccc4)C(C)=C1C3(C)C)[C@]1(OC(C)=O)CO[C@@H]1C[C@@H]2O [PTX, paclitaxel] | approximately 200 μg | approximately 90% | 149 ± 4.8 | 20% | 44 |  |  |  |  |  |  |  |  |
| O=C1OC2(c3ccc(O)cc3Oc3cc(O)ccc32)c2ccccc21 [fluorescein] |  |  |  |  |  |  |  |  |  |  |  |  | fluorescein remaining bound to NCC/CTAB [5]: More than 95%; time by which cellular uptake of fluorescein reached a maximum (KU-7 cells): ≤ 2 h |
| CN(C)[C@@H]1C(O)=C(C(N)=O)C(=O)[C@@]2(O)C(O)=C3C(=O)c4c(O)cccc4[C@@](C)(O)[C@H]3C[C@@H]12 [TET, tetracycline hydrochloride] |  |  |  |  |  | 187 ± 2.0 | 25 | 251 | 48 | 959 | approximately 90% | 93 | drug loading ([3]; almost 500 μg on 2 mg of NCC): 20 % w/w; mass of drug bound to NCC ([3]; bound to 2 mg of NCC (FIG. 2)): ~500 µg |
